According to US10058097B2, “Methods to increase corn productivity” (Valent BioSciences Corporation, priority 2016, dated 2018):

What was measured:
Type in all cases: in vivo
greenhouse-grown maize = experiment: Greenhouse study: effect of GA3 dose +/- GB on growth, 7 and 14 days; details: without or with GB 10000 mg/liter
Protocol: (§1) In several of the following examples, corn was grown in greenhouse conditions, which are defined as follows. Seeds of a commercial hybrid variety were sown in Pro-Mix® BX (Pro-Mix is a registered trademark of Premier Horticulture Ltd.) with the addition of Osmocote (14-14-14) and gypsum in three-liter pots. Greenhouses were kept at 25±3° C. under a 16:8 hour photoperiod, with illumination at canopy level of ˜250 μmoles m^−2s^−1. Corn was typically fertigated with Peters 21-5-20+micronutrients, calcium ammonium nitrate and magnesium sulfate. Typical growth rates for corn under these conditions ranged from 4-5 cm/day.
(§2) In most greenhouse studies, spray applications were made. These applications were made in a track sprayer outfitted with a 4001E Teejet® nozzle (Teejet is available from and a registered trademark of Spraying Systems Co., Glendale Heights, Ill., USA) and applied at 40 psi. Although application volumes did vary between some studies, generally, 30 gallons/acre of spray solution was applied. Following spray applications, plants were returned to the greenhouse. Typically, experiments were blocked according to plant size, and a randomized complete block design (RCB) was used.
(§3) Synergy was determined using the following formula, in which a synergy factor is calculated by the Abbott method: % Cexp=A+B−(AB/100), here % Cexp is the expected efficacy and “in which A and B are the increase in growth (or resistance to stress) levels given by the single [plant growth regulators]. If the ratio between the experimentally observed efficacy of the mixture Cobs and the expected efficacy of the mixture is greater than 1, synergistic interactions are present in the mixture” (Gisi, Synergistic Interaction of Fungicides in Mixtures, The American Phytopathological Society, 86:11, 1273-1279, 1996).
In a separate study, the effect of one rate of GB on various doses of GA3 was studied.

corn plants [1] = experiment: Greenhouse study: growth of corn after V3 spray with GA3 or GB, nine days; details: non-stressed greenhouse; spray at V3; GA3 120 mg/liter, GB 3000 mg/liter; n = 7
Protocol: as §1, §2
In a greenhouse study conducted in Long Grove, Ill., corn plants were sprayed at V3 stage with solutions containing a non-ionic surfactant (0.25%, v/v) at 30 gallons of spray solution/acre and growth was followed for nine days.
as §3
Based on a conservative approach, synergy was determined to be present at ratios of ≥1.10. When grown under non-stressed conditions, GA3 growth was synergized by the addition of 3,000 mg/liter glycine betaine (“GB”), with a synergy factor of 1.65 for growth and 1.68 for growth rate while dry weight/plant was not synergistic with a synergy factor of 0.95.

corn plants [2] = experiment: Chilling stress study (10° C. for five days) after spray with GA3 or GB; details: chilling stress at 10° C. for five days; GA3 120 mg/liter, GB 3000 mg/liter; n = 7 plants
Protocol: In stress studies, plants were subjected to various stresses. In cold stress studies, after spraying, plants were grown in the greenhouse for an additional 48 hours before being measured and moved to a CMP6050 CONVIRON® chamber kept at 10° C. (Conviron is a registered trademark of Controlled Environments Limited Corporation). Illumination was at ˜225 μMoles, and light:dark conditions were on a 12:12 hour photoperiod. After 120 hours of chilling, plants were removed from the cold, measured, and returned to the greenhouse for 48 hours prior to harvest.
as §3
In a greenhouse and growth room study conducted in Long Grove, Ill., corn plants of a commonly grown hybrid were subjected to the following stress regimen: at two days post-foliar application, plants were moved into a controlled environment chamber, where the temperature was maintained at 10° C. with a 12:12 hour photoperiod for five days. At the end of the chilling period, the corn was moved back to the greenhouse for two days before destructive harvest.

potted corn plants = experiment: Acute drought stress greenhouse study, potted corn, 7 and 14 days
Protocol: In a separate acute drought stress greenhouse study conducted in Long Grove, Ill., corn plants were sprayed at V4 stage with solutions containing a non-ionic surfactant (0.25%, v/v) at 30 gallons of spray solution/acre and growth was determined by shoot height increase 7 and 14 days later. After treatment corn plants were not watered with the exception of one treatment of control (aqueous surfactant solution) that were watered as needed (well-watered control).

[3] = acute drought stressed, 120 ppm GA3, 3000 ppm GB, spray at V4

SMILES: C=C1C[C@]23C[C@@]1(O)CC[C@H]2[C@@]12C=C[C@H](O)[C@@](C)(C(=O)O1)[C@H]2[C@@H]3C(=O)O [GA3, gibberellic acid]
- Growth Rate, 0-7 day(s) (greenhouse-grown maize; GA3 30 mg/liter): 3.17 cm/day
- Growth Rate, 0-14 day(s) (greenhouse-grown maize; GA3 30 mg/liter): 6.82 cm/day
- Plant Growth over 7 days (greenhouse-grown maize; GA3 30 mg/liter): 22.2 cm
- Plant Growth over 14 days (greenhouse-grown maize; GA3 30 mg/liter): 47.8 cm
- Growth Rate, 0-7 day(s) (greenhouse-grown maize; GA3 60 mg/liter): 3.57 cm/day
- Growth Rate, 0-14 day(s) (greenhouse-grown maize; GA3 60 mg/liter): 7.24 cm/day
- Plant Growth over 7 days (greenhouse-grown maize; GA3 60 mg/liter): 25.0 cm
- Plant Growth over 14 days (greenhouse-grown maize; GA3 60 mg/liter): 50.7 cm
- Growth Rate, 0-7 day(s) (greenhouse-grown maize; GA3 120 mg/liter): 3.91 cm/day
- Growth Rate, 0-14 day(s) (greenhouse-grown maize; GA3 120 mg/liter): 7.35 cm/day
- Plant Growth over 7 days (greenhouse-grown maize; GA3 120 mg/liter): 27.3 cm
- Plant Growth over 14 days (greenhouse-grown maize; GA3 120 mg/liter): 51.4 cm
- Growth Rate, 0-7 day(s) (greenhouse-grown maize; GA3 240 mg/liter): 4.25 cm/day
- Growth Rate, 0-14 day(s) (greenhouse-grown maize; GA3 240 mg/liter): 7.94 cm/day
- Plant Growth over 7 days (greenhouse-grown maize; GA3 240 mg/liter): 29.8 cm
- Plant Growth over 14 days (greenhouse-grown maize; GA3 240 mg/liter): 55.6 cm
- Dry Weight/Plant (corn plants [1]): 2.92 g
- Growth Rate (corn plants [1]): 4.76 cm/day
- Growth over 9 days (corn plants [1]): 42.9 cm
- Growth Rate (corn plants [2]): 2.38 cm/day
- Growth over 9 days (corn plants [2]): 21.43 cm
- Leaf Area of L1-L5 (corn plants [2]): 324.24 cm^2
- Shoot Growth 7 days after treatment as Percent Increase as compared to Drought Stressed Control (potted corn plants; [3]): 116.9%
- Shoot Growth 14 days after treatment as Percent Increase as compared to Drought Stressed Control (potted corn plants; [3]): 118.7%
- increased growth under drought as compared to controls (potted corn plants; at 7 days): 16.9%
- increased growth under drought as compared to controls (potted corn plants; at 14 days): 18.7%
